Reference: patent US9649512B2, “One or more of Vigna marina, Cocos nucifera L. or Terminalia catappa L. extracts for treating wounds, skin disorders and hair loss” (CIMTECH PTY LIMITED, priority 2009, dated 2017)

Test system: epithelial surface of the backs of 18 month old ovarectomized and sham ovarectomized rats
Test: Parallel study of moisturiser and antibiotic on epithelial thickness
Format: in vivo, rat
From the text: In a parallel study a moisturiser (hydroderm), the topical antibiotic Chloromycetin (chloramphenicol), coconut oil, or coconut oil extracted into ethanol were applied to the epithelial surface of the backs of 18 month old ovarectomized and sham ovarectomized rats and compared to the epithelial surface of an adjacent untreated site. […] The results also indicate that the changes noted in the epithelium are not related to any antimicrobial capacity of the extracts as the changes are not able to be replicated by chloramphenicol.

O=C(N[C@H](CO)[C@H](O)c1ccc([N+](=O)[O-])cc1)C(Cl)Cl [Chloromycetin (chloramphenicol), chloramphenicol]
thickness of the treated skin compared to the untreated adjacent skin: No significant difference
